Here are results for twelve compounds from patent publication US20160122340A1, “HISTONE DEACETYLASE INHIBITORS BASED ON DERIVATIVES OF TRICYCLIC POLYHYDROACRIDINE AND ANALOGS POSSESSING FUSED SATURATED FIVE-AND-SEVEN-MEMBERED RINGS” (QUIMATRYX, S.L., priority 2013, published 2016).

The target in data set [1] is T1, Human HDAC6 (Homo sapiens, UniProt Q9UBN7).
T1 construct: Full length with N-terminal GST tag, MW=159 kDa; GST (N); purchased BioMol SE-508; host or cells: baculovirus / Sf9 cells
T1 sequence (Q9UBN7 1-1215): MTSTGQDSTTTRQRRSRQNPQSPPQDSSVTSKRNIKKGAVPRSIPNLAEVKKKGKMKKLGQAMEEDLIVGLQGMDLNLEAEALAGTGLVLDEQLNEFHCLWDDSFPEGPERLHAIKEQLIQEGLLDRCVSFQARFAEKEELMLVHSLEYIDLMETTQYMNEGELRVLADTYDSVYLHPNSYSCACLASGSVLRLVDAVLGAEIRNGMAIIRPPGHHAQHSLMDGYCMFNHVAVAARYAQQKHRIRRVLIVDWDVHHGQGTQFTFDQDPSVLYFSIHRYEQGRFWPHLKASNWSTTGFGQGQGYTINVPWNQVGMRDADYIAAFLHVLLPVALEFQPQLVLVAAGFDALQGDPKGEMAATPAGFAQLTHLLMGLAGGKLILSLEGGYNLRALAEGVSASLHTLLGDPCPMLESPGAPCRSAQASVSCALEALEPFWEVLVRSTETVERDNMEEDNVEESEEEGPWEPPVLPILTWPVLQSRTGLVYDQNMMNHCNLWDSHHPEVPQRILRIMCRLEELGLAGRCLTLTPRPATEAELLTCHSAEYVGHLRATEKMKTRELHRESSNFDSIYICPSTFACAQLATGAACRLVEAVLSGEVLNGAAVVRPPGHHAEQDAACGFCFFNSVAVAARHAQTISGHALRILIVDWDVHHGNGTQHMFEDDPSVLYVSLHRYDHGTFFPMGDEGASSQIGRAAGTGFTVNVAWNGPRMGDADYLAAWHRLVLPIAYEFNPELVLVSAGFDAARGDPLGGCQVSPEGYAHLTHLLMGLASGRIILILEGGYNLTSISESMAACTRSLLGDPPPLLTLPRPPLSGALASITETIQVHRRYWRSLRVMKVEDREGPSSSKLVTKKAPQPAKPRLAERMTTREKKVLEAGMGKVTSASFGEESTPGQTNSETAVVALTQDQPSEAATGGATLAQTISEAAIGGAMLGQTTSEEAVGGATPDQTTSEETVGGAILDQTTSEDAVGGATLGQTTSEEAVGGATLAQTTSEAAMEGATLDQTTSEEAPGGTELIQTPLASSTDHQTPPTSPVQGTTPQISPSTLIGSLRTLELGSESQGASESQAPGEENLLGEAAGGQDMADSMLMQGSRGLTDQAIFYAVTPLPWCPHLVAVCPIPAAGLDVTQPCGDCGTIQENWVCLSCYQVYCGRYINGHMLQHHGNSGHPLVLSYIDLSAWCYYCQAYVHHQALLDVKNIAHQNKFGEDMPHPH
Kind of data set: In vitro HDAC6 inhibition, fluorogenic peptide substrate. It is filed as biochemical. The conditions noted are these: No preincubation; read-out: IC50 (μM) HDAC-6. The protocol:
(§1) In Vitro Inhibitory Activity of Histone Deacetylase: Human Isoforms HDAC1, 2, 3, 4, 5, 6, 7, 8, 9, 10 and 11 and HeLa Cell Line Nuclear Extract (IC50 Data)
(§2) All HDAC assays were performed using acetylated AMC-labeled peptide substrate: • Substrate for isoforms HDAC1, 2, 3, 6, 10, 11 and HeLa nuclear extract assays: Acetylated fluorogenic peptide from p53 residues 379-382 (RHKKAc). • Substrate for isoforms HDAC 4, 5, 7, 9: Fluorogenic Boc-L-Lys(ε-trifluoroacetyl)-AMC. • Substrate for HDAC8 assays: Acetylated fluorogenic peptide from p53 residues 379-382 (RHKAcKAc).
(§3) 50 μM of substrate peptide (see ‘substrate peptides’ section above) and an optimal concentration of the corresponding enzyme (see ‘enzymes’ section above) in the assay buffer and 1% final concentration of DMSO were incubated in the presence of gradient concentrations of inhibitors (10-dose IC50 mode with 3-fold serial dilution) at 30° C. for 2 h. The reactions were carried out in a 96-well microplate for fluorometry in a 50 μl reaction volume. After the deacetylation reaction, Fluor-de-Lys-Developer (BioMol Cat. # KI-105) was added to each well to digest the deacetylated substrate, thus producing the fluorescent signal. The reaction was allowed to develop for 45 minutes at 30° C. with 5% CO2; then the fluorescent signal was measured with an excitation wavelength at 360 nm and an emission wavelength at 460 nm in a microplate-reading fluorometer (GeminiXS; Molecular Devices, Sunnyvale, Calif.). A curve of Deacetylated Standard (Biomol, Cat. # KI-142; made from 100 μM with 1:2 dilution and 10-doses, 6 μl) allowed the conversion of fluorescent signal into micromoles of deacetylated product. All experiments were performed in triplicate. IC50 was calculated by fitting the experimental data to a dose-response curve. DMSO was used as negative control; Trichostatin A (Biomol Cat. # GR-309) was used as positive control inhibitor.

Data set [2] concerns the target T2, Human HDAC2 (Homo sapiens, UniProt Q92769).
T2 construct: Full length with C-terminal His tag, MW=60 kDa; His (C); purchased BioMol SE-500; host or cells: baculovirus / Sf9 cells
The data set can be described thus: In vitro HDAC2 inhibition, fluorogenic peptide substrate. It is filed as biochemical. The settings on record: read-out: IC50 (μM) HDAC-2. The protocol: as §1, §2, §3

In data set [3] the target is T3, Human HDAC1 (Homo sapiens, UniProt Q13547).
T3 construct: Full length with C-terminal GST tag, MW=79.9 kDa; GST (C); purchased BioMol SE-456; host or cells: baculovirus / Sf9 cells
T3 sequence (Q13547 whole entry): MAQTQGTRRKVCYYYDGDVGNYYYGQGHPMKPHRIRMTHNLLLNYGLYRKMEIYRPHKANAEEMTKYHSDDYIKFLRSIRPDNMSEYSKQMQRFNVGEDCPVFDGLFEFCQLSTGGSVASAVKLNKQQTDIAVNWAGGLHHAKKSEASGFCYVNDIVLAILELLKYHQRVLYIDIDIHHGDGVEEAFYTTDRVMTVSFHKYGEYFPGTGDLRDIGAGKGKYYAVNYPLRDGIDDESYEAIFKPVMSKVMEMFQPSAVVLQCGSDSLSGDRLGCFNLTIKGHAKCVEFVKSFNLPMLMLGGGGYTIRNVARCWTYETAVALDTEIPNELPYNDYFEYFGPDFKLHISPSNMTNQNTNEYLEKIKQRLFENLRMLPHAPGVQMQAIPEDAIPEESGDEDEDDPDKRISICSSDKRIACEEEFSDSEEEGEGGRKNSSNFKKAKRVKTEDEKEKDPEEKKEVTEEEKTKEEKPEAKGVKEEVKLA
The data set can be described thus: In vitro HDAC1 inhibition, fluorogenic peptide substrate. The settings on record: No preincubation; read-out: IC50 (μM) HDAC-1. In kind it is biochemical. The protocol: as §1, §2, §3

In data set [4] the target is T3, Human HDAC1. The data set can be described thus: In vitro HDAC1 inhibition, fluorogenic peptide substrate. It is filed as biochemical. The conditions noted are these: 4 h preincubation; read-out: IC50 (μM) HDAC-1.
Data set [5] concerns T4, Nuclear Extract from HeLa Cells.
T4 construct: 25 ng/μl Nuclear Extract from HeLa Cells: Prepared by high salt extraction of HeLa nuclei (human cervical cancer cell line)
Kind of data set: HeLa nuclear extract HDAC activity inhibition. In kind it is biochemical, human. The protocol:
as §1, §2
as §3, with “50 μM of substrate peptide (see ‘substrate peptides’ section above) and an optimal concentration of the corresponding enzyme (see ‘enzymes’ section above) in the assay buffer and 1% final concentration of DMSO were incubated in the presence of gradient concentrations of inhibitors (10-dose IC50 mode with 3-fold serial dilution) at 30° C. for 2 h.” left out

Structures are written as SMILES. Read-outs that look alike come from different tables or passages of the source.

T2 sequence (Q92769 whole entry): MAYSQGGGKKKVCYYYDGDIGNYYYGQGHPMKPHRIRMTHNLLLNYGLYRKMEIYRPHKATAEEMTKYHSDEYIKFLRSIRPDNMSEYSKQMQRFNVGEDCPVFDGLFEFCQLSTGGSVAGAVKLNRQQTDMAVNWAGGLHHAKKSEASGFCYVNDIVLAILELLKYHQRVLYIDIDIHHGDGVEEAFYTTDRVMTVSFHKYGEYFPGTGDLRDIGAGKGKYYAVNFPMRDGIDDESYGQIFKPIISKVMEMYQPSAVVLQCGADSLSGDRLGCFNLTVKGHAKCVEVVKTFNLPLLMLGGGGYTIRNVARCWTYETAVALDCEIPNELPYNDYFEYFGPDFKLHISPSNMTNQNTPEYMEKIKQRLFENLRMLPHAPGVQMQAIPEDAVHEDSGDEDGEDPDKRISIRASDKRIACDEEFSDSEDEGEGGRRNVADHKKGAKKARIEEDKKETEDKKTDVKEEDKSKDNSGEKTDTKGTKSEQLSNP

Broadly, the IC50 is the concentration needed to halve the response being measured. By melting point is commonly meant the temperature of the solid-liquid transition. `Cc1ccc(NC(=O)CCCCCCNc2c3c(nc4ccccc24)CCCC3)c(N)c1` [Example 12, N-(2-amino-4-methylphenyl)-7-[(1,2,3,4-tetrahydroacridin-9-yl)amino]heptanamide] yielded a melting point of 63 to 64 °C. In data set [1], the IC50 is over 50 µM. The IC50 in data set [2] (No preincubation) was over 50 µM. In data set [3], the IC50 is over 50 µM.

In the case of `CC(C)(C)c1ccc(N)c(NC(=O)CCCCCCNc2c3c(nc4ccccc24)CCCC3)c1` [Example 14, N-[2-amino-5-(tert-butyl)phenyl]-7-[(1,2,3,4-tetrahydroacridin-9-yl)amino]heptanamide], the melting point lay within 75 to 76 °C. For the same compound, the IC50 in data set [4] is over 50 µM. For the same compound, in data set [2] (4 h preincubation), the IC50 was over 50 µM. In data set [2] (No preincubation), the IC50 is over 50 µM. Further, the IC50 in data set [3] was over 50 µM. In addition, the IC50 in data set [5] (4 h preincubation) was over 50 µM. For the same compound, the concentration for half-maximal inhibition (IC50) in data set [5] (No preincubation) is over 50 µM.

In the case of `Nc1ccc(-c2cccnc2)cc1NC(=O)CCCCCCNc1c2c(nc3ccccc13)CCCC2` [Example 21, N-[2-amino-5-(pyridin-3-yl)phenyl]-7-[(1,2,3,4-tetrahydroacridin-9-yl)amino]heptanamide], the IC50 in data set [4] amounted to 8.55 µM; in data set [2] (4 h preincubation), 2.79 µM; in data set [2] (No preincubation) it was 3.37 µM; in data set [3], 3.97 µM; in data set [5] (4 h preincubation), 30.7 µM; in data set [5] (No preincubation), 78.1 µM.

`Nc1ncc(-c2ccccc2)cc1NC(=O)CCCCCCNc1c2c(nc3ccccc13)CCCC2` [Example 20, N-(2-amino-5-phenylpyridin-3-yl)-7-[(1,2,3,4-tetrahydroacridin-9-yl)amino]heptanamide] returned a melting point of 49 to 50 °C. For the same compound, the IC50 in data set [4] was over 50 µM. In addition, the IC50 in data set [2] (4 h preincubation) was over 50 µM. The IC50 in data set [2] (No preincubation) is over 50 µM. The half-inhibitory concentration (IC50) in data set [3] was found to be 594 µM. The compound also gave an IC50 in data set [5] (4 h preincubation) of 109 µM. Further, the IC50 in data set [5] (No preincubation) was over 50 µM.

Compound `Nc1ccc(-c2ccccc2)cc1NC(=O)CCCCCCNc1c2c(nc3ccccc13)CCCC2` [Example 15, N-(4-amino-[1,1′-biphenyl]-3-yl)-7-[(1,2,3,4-tetrahydroacridin-9-yl)amino]heptanamide] registered a melting point of 101 to 102 °C. For the same compound, the IC50 in data set [4] was 1.48 µM. For the same compound, the IC50 in data set [1] is 13.2 µM. Besides, the IC50 in data set [2] (4 h preincubation) came out at 0.079 µM. Besides, the IC50 in data set [2] (No preincubation) was found to be 1.7 µM. Further, in data set [3], the IC50 amounted to 1.26 µM. The compound further gave an IC50 in data set [5] (4 h preincubation) of 3.99 µM. In data set [5] (No preincubation), this compound yielded an IC50 of 4.68 µM.

Regarding `O=C(CCCCCCNc1c2c(nc3c(O)cccc13)CCCC2)NO` [Example 6, N-hydroxy-7-[(5-hydroxy-1,2,3,4-tetrahydroacridin-9-yl)amino]heptanamide], the melting point stood at 73 °C.

In turn, `Cc1ccc(N)c(NC(=O)CCCCCCNc2c3c(nc4ccccc24)CCCC3)c1` [Example 13, N-(2-amino-5-methylphenyl)-7-((1,2,3,4-tetrahydroacridin-9-yl)amino)heptanamide] displayed a melting point of 204 to 205 °C. Besides, the IC50 in data set [4] is over 50 µM. In addition, in data set [1], the IC50 is over 50 µM. For the same compound, the IC50 in data set [2] (4 h preincubation) was 54.3 µM. Moreover, the IC50 in data set [2] (No preincubation) was determined as 62.9 µM. Moreover, the IC50 in data set [3] came out at 57.3 µM.

On to `Nc1ccc(-c2ccccc2)cc1NC(=O)CCCCCNc1c2c(nc3ccccc13)CCCC2` [Example 16, N-(4-Amino-[1,1′-biphenyl]-3-yl)-6-[(1,2,3,4-tetrahydroacridin-9-yl)amino]hexanamide], for which the melting point was 75 to 76 °C.

`O=C(NO)c1ccc(CNc2c3c(nc4ccccc24)CCCC3)cc1` [Example 9, N-hydroxy-4-{[(1,2,3,4-tetrahydroacridin-9-yl)amino]methyl}benzamide] showed a melting point of 204 to 205 °C. The IC50 in data set [5] was determined as 0.9 µM.

As for `Cc1cccc(-c2ccc(N)c(NC(=O)CCCCCCNc3c4c(nc5ccccc35)CCCC4)c2)c1` [Example 17, N-(4-amino-3′-methyl-[1,1′-biphenyl]-3-yl)-7-[(1,2,3,4-tetrahydroacridin-9-yl)amino]heptanamide], the melting point was 53 to 54 °C. The IC50 in data set [4] was 118 µM. Moreover, the half-maximal inhibitory concentration (IC50) in data set [2] (4 h preincubation) is 76 µM. Also, the half-maximal inhibitory concentration (IC50) in data set [2] (No preincubation) came to 188 µM. Also, the IC50 in data set [3] was found to be 250 µM. In data set [5] (4 h preincubation), this compound gave an IC50 of 73.6 µM. This compound also registered an IC50 in data set [5] (No preincubation) of 84.1 µM.

In the case of `CC(C)(C)c1ccc(-c2ccc(N)c(NC(=O)CCCCCCNc3c4c(nc5ccccc35)CCCC4)c2)cc1` [Example 18, N-{4-amino-4′-(tert-butyl)-[1,1′-biphenyl]-3-yl}-7-[(1,2,3,4-tetrahydroacridin-9-yl)amino]heptanamide], the melting point fell in the range of 55 to 56 °C. The IC50 in data set [4] is 48.1 µM. The IC50 in data set [2] (4 h preincubation) was 65.9 µM. Also, the IC50 in data set [2] (No preincubation) is over 50 µM. In addition, the IC50 in data set [3] worked out at 46.7 µM. The compound also showed an IC50 in data set [5] (4 h preincubation) of 25.5 µM. Besides, the IC50 in data set [5] (No preincubation) is 429 µM.

In turn, `Nc1ccc(-c2ccc3ccccc3c2)cc1NC(=O)CCCCCCNc1c2c(nc3ccccc13)CCCC2` [Example 19, N-[2-amino-5-(naphthalen-2-yl)phenyl]-7-[(1,2,3,4-tetrahydroacridin-9-yl)amino]heptanamide] displayed a melting point of 100 to 101 °C. For the same compound, the IC50 in data set [4] was 139 µM. Further, the IC50 in data set [2] (4 h preincubation) was 72.7 µM. The IC50 in data set [2] (No preincubation) is over 50 µM. The IC50 in data set [3] was over 50 µM. This compound yielded a concentration for half-maximal inhibition (IC50) in data set [5] (4 h preincubation) of 39.3 µM. For the same compound, in data set [5] (No preincubation), the IC50 was 17.7 µM.
